Results published in article PMC10746543, “Design principles for cyclin K molecular glue degraders” (Nature Chemical Biology, 2023).
Where “and” joins values, the source holds several entries; their conditions need not be identical. Equal entries are not always repeated. Where two headings read alike, the source gives them in different places.

How the values were obtained:
CDK12–cyclin K and DDB1 = target: T1, CDK12–cyclin K and DDB1 (Homo sapiens, UniProt Q16531+Q9NYV4, K965R); test: TR-FRET ternary complex formation assay (compound titration); format: binding; conditions: for EC50: read-out: TR-FRET EC50
T1 construct: His6–CDK12 (a.a. 713–1,052); full-length or beta-propeller B domain deletion (ΔBPB: a.a. 396–705 deleted) constructs of His6–DDB1ΔBPB, StrepII–Avi–DDB1, or His6–Spy–DDB1; made in house; host or cells: Trichoplusia ni High Five insect cells (baculovirus)
T1 sequence (Q9NYV4 713-1052 K965R): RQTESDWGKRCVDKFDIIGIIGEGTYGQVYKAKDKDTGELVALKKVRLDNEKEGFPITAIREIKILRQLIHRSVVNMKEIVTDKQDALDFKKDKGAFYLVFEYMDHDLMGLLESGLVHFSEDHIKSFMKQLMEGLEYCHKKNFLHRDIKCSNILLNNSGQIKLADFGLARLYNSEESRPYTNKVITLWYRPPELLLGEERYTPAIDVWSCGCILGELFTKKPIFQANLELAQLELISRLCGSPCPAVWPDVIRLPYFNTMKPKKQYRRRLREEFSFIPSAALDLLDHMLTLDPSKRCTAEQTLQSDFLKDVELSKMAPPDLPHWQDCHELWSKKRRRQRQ
T1 sequence (O75909 1-267 partner): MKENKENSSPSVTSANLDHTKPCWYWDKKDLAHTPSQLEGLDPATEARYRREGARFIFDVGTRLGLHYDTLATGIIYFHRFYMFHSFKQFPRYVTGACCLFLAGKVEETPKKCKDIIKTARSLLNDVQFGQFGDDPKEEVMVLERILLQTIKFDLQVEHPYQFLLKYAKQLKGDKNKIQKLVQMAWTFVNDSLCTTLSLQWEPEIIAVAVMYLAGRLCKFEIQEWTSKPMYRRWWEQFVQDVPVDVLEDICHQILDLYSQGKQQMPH
T1 sequence (Q16531 whole entry): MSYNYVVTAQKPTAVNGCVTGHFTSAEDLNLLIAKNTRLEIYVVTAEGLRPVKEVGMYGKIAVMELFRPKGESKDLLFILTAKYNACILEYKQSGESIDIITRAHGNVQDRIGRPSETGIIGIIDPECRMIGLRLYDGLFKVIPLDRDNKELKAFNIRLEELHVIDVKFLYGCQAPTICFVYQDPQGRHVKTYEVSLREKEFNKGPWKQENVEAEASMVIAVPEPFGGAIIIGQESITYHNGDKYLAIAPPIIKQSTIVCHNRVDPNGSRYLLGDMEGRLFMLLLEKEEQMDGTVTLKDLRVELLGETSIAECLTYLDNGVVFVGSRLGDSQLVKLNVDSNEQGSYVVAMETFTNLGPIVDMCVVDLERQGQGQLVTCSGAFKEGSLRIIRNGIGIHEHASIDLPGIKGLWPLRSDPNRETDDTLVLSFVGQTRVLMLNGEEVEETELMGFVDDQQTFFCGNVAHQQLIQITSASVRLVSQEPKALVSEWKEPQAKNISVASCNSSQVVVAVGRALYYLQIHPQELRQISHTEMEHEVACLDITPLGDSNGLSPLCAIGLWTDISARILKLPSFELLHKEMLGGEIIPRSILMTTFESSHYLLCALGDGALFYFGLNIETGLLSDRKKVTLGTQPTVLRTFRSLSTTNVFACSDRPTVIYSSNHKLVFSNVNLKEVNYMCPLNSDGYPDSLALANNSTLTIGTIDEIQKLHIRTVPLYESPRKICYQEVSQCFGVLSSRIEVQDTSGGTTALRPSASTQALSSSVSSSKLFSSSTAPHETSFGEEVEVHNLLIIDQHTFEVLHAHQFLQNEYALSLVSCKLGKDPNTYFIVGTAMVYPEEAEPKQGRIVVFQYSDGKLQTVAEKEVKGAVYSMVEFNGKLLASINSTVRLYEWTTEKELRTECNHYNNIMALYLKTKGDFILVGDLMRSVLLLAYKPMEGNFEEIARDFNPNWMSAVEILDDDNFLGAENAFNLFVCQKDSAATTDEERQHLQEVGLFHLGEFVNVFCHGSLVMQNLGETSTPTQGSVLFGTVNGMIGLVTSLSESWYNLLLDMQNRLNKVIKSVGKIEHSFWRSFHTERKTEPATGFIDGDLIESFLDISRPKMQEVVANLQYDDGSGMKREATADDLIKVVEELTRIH
Outline: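 Delayed (70 μs) time-resolved read; FRET computed as 520 nm over 490 nm emission.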

[1] = tested on: cyclin K–eGFP degradation reporter; test: Cyclin K reporter stability analysis (dual-color cyclin K–eGFP reporter); format: cell-based, human; conditions: source data sheet correlations; read-out: DC50
Outline: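 Readout was the eGFP-to-mCherry geometric-mean ratio by flow cytometry, normalized to three DMSO controls, after 5 h drug exposure. Cells used were HEK293T–Cas9 expressing the dual-colour cyclin K–eGFP degradation reporter.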

HEK293T cells = test: Drug sensitivity assay (CellTiter-Glo viability) with or without MLN4924 pretreatment; format: cell-based, human; conditions: Supplementary Table 2
Outline: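 Viability of HEK293T–Cas9 cells was compared after 3-day drug treatment with or without 100 nM MLN4924 pretreatment (2 h, versus DMSO). Values are CellTiter-Glo signals relative to DMSO controls.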

CDK12–cyclin K = CDK12–cyclin K (Homo sapiens, UniProt Q9NYV4); test: Lanthascreen kinase binding assay, CDK12; conditions: for Lanthascreen raw signal, sheet CDK12: series r1, duplicates
CDK12–cyclin K, sequence (Q9NYV4 713-1052): as the sequence (Q9NYV4 713-1052 K965R) above, with R253K counted along it
CDK12–cyclin K, sequence (O75909 1-267 partner limits assumed): as the sequence (O75909 1-267 partner) above
Method: (§1) Lanthascreen experiments were performed using commercially available reagents (Thermo Fisher) and according to the manufacturer’s instructions.

CDK9–cyclin T = target: T2, CDK9–cyclin T (Homo sapiens, UniProt P50750); test: Lanthascreen kinase binding assay, CDK9; conditions: for Lanthascreen TR-FRET signal (raw ratio), sheet CDK9: first titration set (r1), duplicates
T2 construct: purchased Thermo Fisher
T2 sequence (P50750 whole entry): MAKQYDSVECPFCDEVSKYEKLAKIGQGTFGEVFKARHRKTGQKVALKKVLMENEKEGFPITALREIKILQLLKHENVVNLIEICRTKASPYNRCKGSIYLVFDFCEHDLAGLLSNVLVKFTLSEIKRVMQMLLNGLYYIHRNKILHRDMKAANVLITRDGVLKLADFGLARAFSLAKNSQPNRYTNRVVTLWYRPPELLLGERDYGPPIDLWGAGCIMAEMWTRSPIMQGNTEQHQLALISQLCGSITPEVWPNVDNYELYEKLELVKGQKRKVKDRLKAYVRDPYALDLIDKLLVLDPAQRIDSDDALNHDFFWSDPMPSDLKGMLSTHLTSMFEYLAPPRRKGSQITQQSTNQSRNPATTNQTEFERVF
T2 sequence (O60563 whole entry partner): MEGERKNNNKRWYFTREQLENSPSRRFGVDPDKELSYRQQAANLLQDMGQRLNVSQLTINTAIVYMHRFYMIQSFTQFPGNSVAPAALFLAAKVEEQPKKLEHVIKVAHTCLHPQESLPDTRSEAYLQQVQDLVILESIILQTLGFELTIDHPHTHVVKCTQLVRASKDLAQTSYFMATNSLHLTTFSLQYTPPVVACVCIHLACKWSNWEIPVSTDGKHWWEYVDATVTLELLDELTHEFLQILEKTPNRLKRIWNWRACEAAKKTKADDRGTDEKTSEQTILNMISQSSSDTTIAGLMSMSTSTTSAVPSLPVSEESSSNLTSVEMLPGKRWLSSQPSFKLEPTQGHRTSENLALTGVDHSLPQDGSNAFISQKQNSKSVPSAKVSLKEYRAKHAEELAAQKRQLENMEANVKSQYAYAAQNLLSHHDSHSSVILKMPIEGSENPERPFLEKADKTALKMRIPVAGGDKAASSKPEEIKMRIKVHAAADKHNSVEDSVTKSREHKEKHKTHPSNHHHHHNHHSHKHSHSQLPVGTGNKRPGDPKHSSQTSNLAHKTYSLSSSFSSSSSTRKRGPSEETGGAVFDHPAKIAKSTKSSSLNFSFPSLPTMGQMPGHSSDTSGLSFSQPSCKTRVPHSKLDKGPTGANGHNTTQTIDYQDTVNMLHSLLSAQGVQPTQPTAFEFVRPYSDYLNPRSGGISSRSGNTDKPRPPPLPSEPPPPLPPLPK
Method: as §1

CDK2–cyclin A = target: T3, CDK2–cyclin A (Homo sapiens, UniProt P24941); test: Lanthascreen kinase binding assay, CDK2; conditions: for Lanthascreen signal, sheet CDK2: raw replicates, experiment r1-r11
T3 construct: purchased Thermo Fisher
Method: as §1

**Q.** Which results are given for `Fc1ccc2[nH]c(CNc3nc(N4CCOCC4)nc4c(Br)cnn34)nc2c1F` [DS72]?
**A.** TR-FRET signal at compound concentration 0.468 nM (CDK12–cyclin K and DDB1; compound concentration 0.468 nM, raw replicate titration data): 0.3453 and 0.3314 and 0.2038 and 0.2054; TR-FRET signal at compound concentration 2.16 nM (CDK12–cyclin K and DDB1; compound concentration 2.16 nM, raw replicate titration data): 0.4522 and 0.4261 and 0.3132 and 0.3307; TR-FRET signal at compound concentration 3.6 nM (CDK12–cyclin K and DDB1; compound concentration 3.6 nM, raw replicate titration data): 0.6871 and 0.6344 and 0.5591 and 0.6106; TR-FRET signal at compound concentration 7.92001 nM (CDK12–cyclin K and DDB1; compound concentration 7.92001 nM, raw replicate titration data): 1.2161 and 1.061 and 1.142 and 1.169; TR-FRET signal at compound concentration 15.84 nM (CDK12–cyclin K and DDB1; compound concentration 15.84 nM, raw replicate titration data): 2.149 and 1.974 and 2.1219 and 2.262; TR-FRET signal at compound concentration 30.96 nM (CDK12–cyclin K and DDB1; compound concentration 30.96 nM, raw replicate titration data): 3.31 and 3.181 and 2.938 and 2.942; TR-FRET signal at compound concentration 62.6401 nM (CDK12–cyclin K and DDB1; compound concentration 62.6401 nM, raw replicate titration data): 3.363 and 3.323 and 3.061 and 3.125; TR-FRET signal at compound concentration 125.28 nM (CDK12–cyclin K and DDB1; compound concentration 125.28 nM, raw replicate titration data): 3.473 and 3.376 and 3.04 and 3.123; TR-FRET signal at compound concentration 244.8 nM (CDK12–cyclin K and DDB1; compound concentration 244.8 nM, raw replicate titration data): 3.475 and 3.275 and 3.121 and 3.153; TR-FRET signal at compound concentration 993.601 nM (CDK12–cyclin K and DDB1; compound concentration 993.601 nM, raw replicate titration data): 3.459 and 3.133 and 3.073; TR-FRET signal at compound concentration 2001.6 nM (CDK12–cyclin K and DDB1; compound concentration 2001.6 nM, raw replicate titration data): 3.344 and 3.271 and 3.14 and 3.1113; EC50 (CDK12–cyclin K and DDB1; in vitro complex formation, 50 nM CDK12–cyclin K, 100 nM DDB1, text and figures): 12 ± 1 nM; EC50 (CDK12–cyclin K and DDB1; source data sheet correlations): 12.2 nM; DC50 [1]: 6 nM; EC50 (HEK293T cells; Homo sapiens, HEK-293T, HEK293T viability, 72 h, compound alone, read-out: Cellular assays EC50): 6 nM; Toxicity rescue (HEK293T cells; MLN4924-mediated cytotoxicity rescue, 10 µM used where n.d.): 533%; IC50 (CDK12–cyclin K; Supplementary Table 2, read-out: Lanthascreen IC50 [nM] CDK12): 1 nM; Lanthascreen raw signal, sheet CDK12 (CDK12–cyclin K; compound 1.02544 nM): 0.008081 and 0.009101; Lanthascreen raw signal, sheet CDK12 (CDK12–cyclin K; compound 3.15521 nM): 0.008849 and 0.007319; Lanthascreen raw signal, sheet CDK12 (CDK12–cyclin K; compound 9.46563 nM): 0.006356 and 0.00835; Lanthascreen raw signal, sheet CDK12 (CDK12–cyclin K; compound 31.5521 nM): 0.005926 and 0.005481; Lanthascreen raw signal, sheet CDK12 (CDK12–cyclin K; compound 99.3891 nM): 0.005678 and 0.004673; Lanthascreen raw signal, sheet CDK12 (CDK12–cyclin K; compound 315.521 nM): 0.005163 and 0.006077; Lanthascreen raw signal, sheet CDK12 (CDK12–cyclin K; compound 3155.21 nM): 0.003862 and 0.004893; Lanthascreen raw signal, sheet CDK12 (CDK12–cyclin K; compound 10002 nM): 0.003963 and 0.004045; IC50 (CDK9–cyclin T; Supplementary Table 2, read-out: Lanthascreen IC50 [nM] CDK9): 104 nM; Lanthascreen TR-FRET signal (raw ratio), sheet CDK9 (CDK9–cyclin T; compound 1.02544 nM): 0.0138 and 0.01522; Lanthascreen TR-FRET signal (raw ratio), sheet CDK9 (CDK9–cyclin T; compound 3.15521 nM): 0.01223 and 0.01249; Lanthascreen TR-FRET signal (raw ratio), sheet CDK9 (CDK9–cyclin T; compound 9.46563 nM): 0.0129 and 0.01178; Lanthascreen TR-FRET signal (raw ratio), sheet CDK9 (CDK9–cyclin T; compound 31.5521 nM): 0.00952 and 0.01286; Lanthascreen TR-FRET signal (raw ratio), sheet CDK9 (CDK9–cyclin T; compound 99.3891 nM): 0.008274 and 0.008068; Lanthascreen TR-FRET signal (raw ratio), sheet CDK9 (CDK9–cyclin T; compound 315.521 nM): 0.006761 and 0.006072; Lanthascreen TR-FRET signal (raw ratio), sheet CDK9 (CDK9–cyclin T; compound 3155.21 nM): 0.003594 and 0.002711; Lanthascreen TR-FRET signal (raw ratio), sheet CDK9 (CDK9–cyclin T; compound 10002 nM): 0.003294 and 0.003353; Lanthascreen signal, sheet CDK2 (CDK2–cyclin A; Compound 1.02544 nM): 0.009384 and 0.009817; Lanthascreen signal, sheet CDK2 (CDK2–cyclin A; Compound 3.15521 nM): 0.009333 and 0.009829; Lanthascreen signal, sheet CDK2 (CDK2–cyclin A; Compound 9.46563 nM): 0.009654 and 0.01088; Lanthascreen signal, sheet CDK2 (CDK2–cyclin A; Compound 31.5521 nM): 0.008522 and 0.009526; Lanthascreen signal, sheet CDK2 (CDK2–cyclin A; Compound 99.3891 nM): 0.01016 and 0.009968; Lanthascreen signal, sheet CDK2 (CDK2–cyclin A; Compound 315.521 nM): 0.008698 and 0.009504; Lanthascreen signal, sheet CDK2 (CDK2–cyclin A; Compound 3155.21 nM): 0.005132 and 0.004872; Lanthascreen signal, sheet CDK2 (CDK2–cyclin A; Compound 10002 nM): 0.003933 and 0.00458; IC50 (CDK2–cyclin A; Supplementary Table 2, read-out: Lanthascreen IC50 [nM] CDK2): 1060 nM
